# According to US9821080B2 (priority 2011, dated 2017):
# Columns and labels:
# [1] = tested on: H1N1; parameters: species or system influenza virus A/Puerto Rico/8/1934 (H1N1)
# [2] = tested on: ST cells; assay type: cell-based, swine
substance,measurement,setting,value
fluorescein isothiocyanate [FITC],total fluorescence relative to H1N1 modified with 25 μg/ml FSL-FLRO4,[1],about 9 times
same,fewer labelled virions infecting cells compared with 25 μg/ml FSL-FLRO4 modified H1N1,[2],9 times
